The text below walks through data of patent US20110150821A1, “METHODS AND CROSSLINKED POLYMER COMPOSITIONS FOR CARTILAGE REPAIR” (ANGIOTECH PHARMACEUTICALS (US), INC., priority 2004, published 2011).

For data set [1] the following is noted: cited from earlier work.
The test system of data set [2] is Chick Chorioallantoic Membrane (CAM) vasculature. Nature of the data set: Chick chorioallantoic membrane (CAM) angiogenesis assay. Conditions: for INHIBITION/N: 48 hours exposure; for effect on angiogenesis: 48 hours after application to the CAM.
Setting [3] is: within 48 hours, depending on concentration.

For the compound `O=C1c2c(O)ccc(O)c2C(=O)c2c(NCCNCCO)ccc(NCCNCCO)c21` [mitoxantrone], in data set [1], the solubility in water entry is recorded as “insoluble in water”. For the same compound, the INHIBITION/N in data set [2] (1 μg in methylcellulose (10 μl) disk on CAM) was 18/24; in data set [2] (5 μg in methylcellulose (10 μl) disk on CAM), 21/24; in data set [2] (10 μg in methylcellulose (10 μl) disk on CAM), 18/22. Also, in data set [2], the effect on angiogenesis entry was “angiogenesis was inhibited”. In addition, the “maximal avascular zone diameter” value in data set [2] (setting [3]) is 6 mm. Moreover, the “maximal avascular zone on the avascular gradient scale” value in data set [2] (setting [3]) is reported as 3.
Regarding `CC(=O)O[C@H]1C(=O)[C@@]2(C)[C@H]([C@H](OC(=O)c3ccccc3)[C@]3(O)C[C@H](OC(=O)[C@H](O)[C@@H](NC(=O)c4ccccc4)c4ccccc4)C(C)=C1C3(C)C)[C@]1(OC(C)=O)CO[C@@H]1C[C@@H]2O` [paclitaxel], the effect on angiogenesis entry in data set [2] is “angiogenesis was inhibited”. In data set [2] (setting [3]), the “maximal avascular zone on the avascular gradient scale” value is 3.
